# According to paper PMC9167584, “Calotropin and corotoxigenin 3-O-glucopyranoside from the desert milkweed Asclepias subulata inhibit the Na^+/K^+-ATPase activity” (PeerJ, 2022):
# “And” between values parts separate entries of the source, which are not always exact repeats. Equal entries are not always repeated.
# Columns and labels:
# A549, PC-3, and LS-180 = system: A549, PC-3, and LS-180; parameters: method as in Rascón-Valenzuela et al. (2015); conditions: human cancer cell lines A549, PC-3, LS-180; ref Rascón-Valenzuela et al. (2015); cited from earlier work
# [1] = molecular target: brain porcine Na^+/K^+-ATPase; experiment: In vitro inhibitory assay of Na+/K+-ATPase (colorimetric Pi release); format: biochemical; conditions: brain porcine enzyme; mean ± SD; triplicate; read-out: Inhibition of Na^+/K^+-ATPase IC50
# Description: We used the inhibitory assay method described by [Mugpasao et al. (2014)]. The enzymatic activity of Na^+/K^+-ATPase was determined by colorimetric quantification of orthophosphate (Pi) released during the ATP hydrolysis according to the method of [Taussky, Shorr & Kurzmann (1953)]. The inhibition assays were done using commercial brain porcine Na^+/K^+-ATPase. Protein concentration was determined according to the Bradford method ([Bradford, 1976]) using bovine serum albumin as standard. As inhibitors, we used cardenolides ouabain, calotropin, and C3OG. The cardenolide ouabain was used as a reference molecule. The reaction was done in a 96-wells plate, adding 10 μL of Na^+/K^+-ATPase solution (0.5 U/mL) with 4 μL of NaCl/KCl solution (35 mM of KCl and 1.65 M of NaCl), 70 μL of Tris-HCl buffer (30 mM Tris-HCl, 0.5 mM of EDTA and 7.8 mM of MgCl2) at 37 °C and 30 min with 6 μL either dimethyl sulfoxide (DMSO) or test compounds on each well. The range concentrations of inhibitors were 100.0–0.001 μM of ouabain and 1000.0–0.01 μM of calotropin and C3OG. Then, 20 μL of ATP solution 22 mM was added to each well, and the reaction solution was incubated at 37 °C for 15 min.
# Next, we added 30 μL of trichloroacetic acid (TCA) at 30% (w/v) to each well to block the reaction. The 96-wells plate was mixed slightly and centrifuged at 3,000 rpm for 15 min. Finally, 50 μL of the supernatant was transferred to another 96-well plate and were coated with 100 μL of Taussky-Shorr solution. The absorbance was read at 660 nm in a microplate reader ThermoScientific Multiskan (Thermo Fisher, Vantaa, Finland) after incubation of 5 min at room temperature, protected from the light. The color intensity was proportional to the release of orthophosphate, indicating ATP hydrolysis and the Na^+/K^+-ATPase activity. The inhibition of the enzymatic activity by cardenolides was managed in the percentage of Na^+/K^+-ATPase activity compared with control. The data of inhibitory Na^+/K^+-ATPase activity were expressed in IC50 and standard deviation. All experiments were performed in triplicate. […]
# [2] = system: porcine brain Na^+/K^+-ATPase; experiment: Kinetic analysis of Na+/K+-ATPase inhibition (Michaelis-Menten, Lineweaver-Burk); format: biochemical; conditions: for Type of inhibition: Lineweaver-Burk plot, 0.1 and 1.0 μM inhibitor; for Ki: uncompetitive inhibition model, ATP as substrate
# Description: The Michaelis-Menten kinetic parameters Km and Vmax of porcine brain Na^+/K^+-ATPase were determined from the initial velocities by modifying the ATP concentrations from 0.125 to 4.0 mM using the enzymatic standard conditions previously mentioned. Initial rates were recorded for 15 min in intervals of 3 min. The measurements were done in the absence or presence of inhibitors. The concentration of Na^+, K^+, and Mg^2+ ions remained constant. The initial velocity when the A. subulata cardenolides were tested was recorded for 15 min. Kinetic analyses were carried out in the presence or absence of two different concentrations of cardenolides (0.1 and 1.0 μM) to determine the nature of the inhibition of the Na^+/K^+-ATPase. All experiments were performed in triplicate. The experimental data were fitted to the Michaelis-Menten equation by non-linear regression analysis. The type of inhibition was obtained by Lineweaver-Burk double reciprocal plots using GraphPad Prism software version 8 (GraphPad Software Inc., San Diego, CA, USA).
# [3] = molecular target: porcine cerebral cortex Na^+/K^+-ATPase; parameters: method as in Agrawal et al. (2021); conditions: porcine cerebral cortex enzyme; ref Agrawal et al. (2021); cited from earlier work
# Na^+/K^+-ATPase = molecular target: Na^+/K^+-ATPase; parameters: method as in Ren et al., 2020; conditions: reference inhibitor; ref Ren et al., 2020; cited from earlier work
# [4] = in presence of 0.1 μM inhibitor
# [5] = in presence of 1.0 μM inhibitor
compound,measurement,setting,value
"C[C@]12CCC3C(CCC4C[C@@H](O[C@@H]5O[C@H](CO)[C@@H](O)[C@H](O)[C@H]5O)CC[C@@]43C=O)[C@@]1(O)CC[C@@H]2C1=CC(=O)OC1 (stereo partly shown) [C3OG, corotoxigenin 3-O-glucopyranoside]",IC50 (cytotoxicity),"A549, PC-3, and LS-180",micromolar order
same,IC50,[1],870 ± 200 nM
same,Type of inhibition,[2],Uncompetitive
same,Vmax,[2]; [4],1.47 ± 0.08 μmolPi/mg/min
same,Vmax,[2]; [5],0.80 ± 0.06 μmolPi/mg/min
same,Ki,[2],500 nM and 520 nM
"C[C@@H]1C[C@H](O)[C@]2(O)O[C@@H]3C[C@@]4(C=O)[C@@H](CC[C@@H]5[C@@H]4CC[C@]4(C)[C@@H](C6=CC(=O)OC6)CC[C@]54O)C[C@H]3O[C@@H]2O1 [Calotropin, calotropin]",IC50 (cytotoxicity),"A549, PC-3, and LS-180",nanomolar order
same,IC50,[1],270 ± 60 nM
same,Type of inhibition,[2],Uncompetitive
same,Vmax,[2]; [4],2.17 ± 0.10 μmolPi/mg/min
same,Vmax,[2]; [5],0.77 ± 0.10 μmolPi/mg/min
same,Ki,[2],200 ± 30 nM
same,IC50,[3],270 nM
"C[C@@H]1O[C@@H](O[C@H]2C[C@@H](O)[C@]3(CO)[C@H]4[C@H](O)C[C@]5(C)[C@@H](C6=CC(=O)OC6)CC[C@]5(O)[C@@H]4CC[C@]3(O)C2)[C@H](O)[C@H](O)[C@H]1O [Ouabain, ouabain octahydrate, reference compound]",IC50,[1],120 ± 20 nM
same,Type of inhibition,[2],uncompetitive
same,Vmax,[2]; [4],2.11 ± 0.14 μmolPi/mg/min
same,Vmax,[2]; [5],0.66 ± 0.04 μmolPi/mg/min
same,Ki,[2],160 nM
C[C@H]1O[C@@H](O[C@H]2[C@@H](O)C[C@H](O[C@H]3[C@@H](O)C[C@H](O[C@H]4CC[C@@]5(C)[C@H](CC[C@@H]6[C@@H]5C[C@@H](O)[C@]5(C)[C@@H](C7=CC(=O)OC7)CC[C@]65O)C4)O[C@@H]3C)O[C@@H]2C)C[C@H](O)[C@@H]1O [digoxin],IC50,Na^+/K^+-ATPase,230 nM
